The results in this text go back to ChEMBL document CHEMBL1127161, “Synthesis of a peptidyl 2,2-difluoro-4-phenylbutyl ketone and its evaluation as an inhibitor of interleukin-1 converting enzyme” (Bioorg Med Chem Lett, 1993).

A word on the Ki: it is the equilibrium dissociation constant of an inhibitor or competing ligand from its target. A lower Ki goes with higher affinity.

In this test the target is T1, Caspase-1 (Homo sapiens, UniProt P29466).
T1 sequence (P29466 whole entry): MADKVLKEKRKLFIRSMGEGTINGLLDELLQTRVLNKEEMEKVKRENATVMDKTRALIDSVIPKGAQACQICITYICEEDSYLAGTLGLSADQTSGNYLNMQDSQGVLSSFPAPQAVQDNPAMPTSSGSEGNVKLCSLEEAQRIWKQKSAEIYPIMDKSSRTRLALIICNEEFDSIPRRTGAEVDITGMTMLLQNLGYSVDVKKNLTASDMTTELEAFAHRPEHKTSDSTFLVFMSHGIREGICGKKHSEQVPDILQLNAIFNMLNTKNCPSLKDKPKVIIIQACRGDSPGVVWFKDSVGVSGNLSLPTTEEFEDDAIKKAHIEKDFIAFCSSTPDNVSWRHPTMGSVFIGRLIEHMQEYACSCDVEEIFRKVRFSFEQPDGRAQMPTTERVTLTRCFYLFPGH
The test is described as follows: The compound was tested for its inhibitory activity against IL-1 beta converting enzyme.

The compound `CC(C)[C@H](NC(=O)CCCCc1ccccc1)C(=O)N[C@@H](C)C(=O)NC(CC(=O)O)C(=O)C(F)(F)CCCc1ccccc1` (some centres not stated) gave a Ki of 42 µM.
`CC(C)[C@H](NC(=O)CCc1ccccc1)C(=O)N[C@@H](C)C(=O)NC(CC(=O)O)C(=O)C(F)(F)CCCc1ccccc1` (some centres not stated) had an inhibitory constant (Ki) of 6 µM.
